Laboratory results taken from PMC4501179, “Tuning properties and dynamic range of type 1 vomeronasal receptors” (Frontiers in Neuroscience, 2015).

Target: T1, V1rj3 (Mus musculus, UniProt Q2TBB9)
T1 sequence (Q2TBB9 1-308): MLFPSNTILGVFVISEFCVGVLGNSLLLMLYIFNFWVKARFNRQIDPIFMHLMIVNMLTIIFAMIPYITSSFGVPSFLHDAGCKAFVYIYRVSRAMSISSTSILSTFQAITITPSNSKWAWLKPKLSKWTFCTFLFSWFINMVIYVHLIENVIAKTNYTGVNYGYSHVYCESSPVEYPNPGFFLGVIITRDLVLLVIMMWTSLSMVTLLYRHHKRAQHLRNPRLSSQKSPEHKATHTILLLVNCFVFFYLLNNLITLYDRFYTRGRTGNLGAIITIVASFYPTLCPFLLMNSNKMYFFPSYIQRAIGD
Assay: GCaMP2 calcium imaging of VNO slices from transgenic mice ectopically expressing V1rj3

SMILES | GCaMP2 calcium imaging of VNO slices from transgenic mice ectopically expressing
C[C@]12CC[C@H]3[C@@H](CC=C4C[C@@H](OS(=O)(=O)O)CC[C@@]43C)[C@@H]1CC[C@@H]2OS(=O)(=O)O [A7864, 5-androsten-3β, 17β-diol-disulfate] | 10^−5 M
C[C@]12CC[C@@H]3c4ccc(OS(=O)(=O)O)cc4CC[C@H]3[C@@H]1CC[C@@H]2OS(=O)(=O)O [E1050, 1, 3, 5(10)-estratrien-3, 17β-diol disulfate] | 10^−10 M
C[C@]12CC[C@@H]3c4ccc(OS(=O)(=O)O)cc4CC[C@H]3[C@@H]1CC[C@@H]2O [E1100, 17β-estradiol 3-sulfate] | 10^−5 M
C[C@]12CC[C@@H]3c4ccc(O)cc4CC[C@H]3[C@@H]1CC[C@@H]2OS(=O)(=O)O [E1103, 1,3, 5(10)-estratrien-3, 17β-diol 17-sulfate] | 10^−10 M
